Measurements: the NIST ThermoML archive (doi:10.1016/j.tca.2009.07.006)
± gives the expanded uncertainty stated by the source.

Key:
[1] = xn = mol fraction of the nth substance listed; settings: 101 kPa, Liquid
[2] = molar heat capacity at constant pressure; xn = mol fraction of the nth substance listed; settings: 101 kPa, Liquid, Small sample (50 mg) DSC

CCOS(=O)(=O)[O-].CCn1cc[n+](C)c1 [1-ethyl-3-methylimidazolium ethyl sulfate] + O
Settings	electrical conductivity, x1 = 0.2 [S/m]	electrical conductivity, x1 = 0.4 [S/m]	electrical conductivity, x1 = 0.6 [S/m]	electrical conductivity, x1 = 0.8 [S/m]	molar heat capacity at constant pressure, x1 = 0.2 [J/K/mol]	molar heat capacity at constant pressure, x1 = 0.4 [J/K/mol]	molar heat capacity at constant pressure, x1 = 0.6 [J/K/mol]	molar heat capacity at constant pressure, x1 = 0.8 [J/K/mol]
[1], 293.2 K	2.17 ± 0.042	1.23 ± 0.036	0.74 ± 0.012	0.466 ± 0.014	–	–	–	–
[1], 298.2 K	2.53 ± 0.02	1.44 ± 0.008	0.881 ± 0.014	0.569 ± 0.01	–	–	–	–
[1], 303.2 K	2.95 ± 0.03	1.695 ± 0.004	1.05 ± 0.016	0.696 ± 0.008	–	–	–	–
[1], 308.2 K	3.387 ± 0.03	1.95 ± 0.001	1.25 ± 0.022	0.837 ± 0.01	–	–	–	–
[1], 313.2 K	3.85 ± 0.04	2.243 ± 0.012	1.45 ± 0.028	0.991 ± 0.01	–	–	–	–
[1], 318.2 K	4.34 ± 0.05	2.563 ± 0.012	1.67 ± 0.038	1.159 ± 0.01	–	–	–	–
[1], 323.2 K	4.86 ± 0.08	2.9 ± 0.02	1.91 ± 0.04	1.342 ± 0.012	–	–	–	–
[1], 328.2 K	5.4 ± 0.076	3.257 ± 0.012	2.15 ± 0.062	1.54 ± 0.012	–	–	–	–
[1], 333.2 K	5.93 ± 0.084	3.617 ± 0.024	2.41 ± 0.072	1.746 ± 0.012	–	–	–	–
[1], 338.2 K	6.5 ± 0.07	3.997 ± 0.012	2.69 ± 0.088	1.94 ± 0.001	–	–	–	–
[1], 343.2 K	7.07 ± 0.092	4.393 ± 0.012	2.99 ± 0.11	2.173 ± 0.012	–	–	–	–
[1], 348.2 K	7.64 ± 0.08	4.793 ± 0.012	3.28 ± 0.04	2.417 ± 0.012	–	–	–	–
[1], 353.2 K	8.24 ± 0.072	5.207 ± 0.03	3.62 ± 0.12	2.673 ± 0.024	–	–	–	–
[2], 303.2 K	–	–	–	–	146.4 ± 2.3	218.8 ± 4.5	290 ± 4.5	359.1 ± 6
[2], 308.2 K	–	–	–	–	147.5 ± 2.3	220.3 ± 3.5	291.4 ± 4.5	360.8 ± 6.1
[2], 313.2 K	–	–	–	–	148.7 ± 2.3	221.6 ± 3.7	292.8 ± 4.5	362.3 ± 5.6
[2], 318.2 K	–	–	–	–	149.5 ± 2.3	223.1 ± 3.5	294.4 ± 4.6	364 ± 5.6
[2], 323.2 K	–	–	–	–	150.8 ± 2.3	224.7 ± 3.5	295.9 ± 4.6	365.7 ± 5.7
[2], 328.2 K	–	–	–	–	151.9 ± 2.4	226.1 ± 3.5	297.5 ± 4.6	367.5 ± 5.7
[2], 333.2 K	–	–	–	–	153.2 ± 2.4	227.8 ± 3.5	298.9 ± 4.6	369.3 ± 5.7
[2], 338.2 K	–	–	–	–	154.7 ± 2.4	229.4 ± 3.6	300.6 ± 4.7	371.5 ± 5.8
[2], 343.2 K	–	–	–	–	155.9 ± 2.7	231 ± 3.6	302.2 ± 4.7	373.2 ± 5.8
[2], 348.2 K	–	–	–	–	157.2 ± 2.9	232.8 ± 3.6	304 ± 4.7	375.5 ± 5.8
[2], 353.2 K	–	–	–	–	158.4 ± 3.1	234.6 ± 3.6	305.8 ± 4.7	377.5 ± 5.9
